Assays:
[1] = Partition coefficient (logP); type: physicochemical; settings: octanol/water
Rattus norvegicus [2] = experiment: Inhibition of catalepsy in rat by subcutaneous administration of compound; type: functional; settings: sc
D(4) dopamine receptor [3] = target: T1, D(4) dopamine receptor (Homo sapiens, UniProt P21917); experiment: Binding affinity towards human D4.2 receptor
T1 sequence (P21917 whole entry): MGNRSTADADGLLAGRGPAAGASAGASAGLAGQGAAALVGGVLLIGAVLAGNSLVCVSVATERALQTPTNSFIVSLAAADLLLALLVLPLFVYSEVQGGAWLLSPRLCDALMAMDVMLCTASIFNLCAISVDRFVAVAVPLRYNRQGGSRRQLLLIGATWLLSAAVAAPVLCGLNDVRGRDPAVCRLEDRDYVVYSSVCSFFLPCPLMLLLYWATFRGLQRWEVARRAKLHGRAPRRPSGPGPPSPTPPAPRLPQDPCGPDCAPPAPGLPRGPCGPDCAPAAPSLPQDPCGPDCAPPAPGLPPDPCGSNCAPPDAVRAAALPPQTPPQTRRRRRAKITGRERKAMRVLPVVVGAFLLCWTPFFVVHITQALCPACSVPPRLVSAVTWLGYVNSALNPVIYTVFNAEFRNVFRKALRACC

Mus musculus [4] = experiment: Inhibition of apomorphine induced climbing affects in mice by administering the compound subcutaneously in mice; type: functional; settings: sc
D(3) dopamine receptor = D(3) dopamine receptor (Homo sapiens, UniProt P35462)
Description: Binding affinity towards human Dopamine receptor D3

[5] = Delta ED50 value by Subcutaneous administration (ED50 catalepsy-ED50 Climbing); type: functional
[6] = target: T2, Muscarinic acetylcholine receptor M1 (Homo sapiens, UniProt P11229); experiment: Inhibition of binding of 1.0 nM [3H]pirenzepine to cloned human Muscarinic acetylcholine receptor M1 expressed in membranes from CHO-K1 cells; type: cell-based
T2 sequence (P11229 whole entry): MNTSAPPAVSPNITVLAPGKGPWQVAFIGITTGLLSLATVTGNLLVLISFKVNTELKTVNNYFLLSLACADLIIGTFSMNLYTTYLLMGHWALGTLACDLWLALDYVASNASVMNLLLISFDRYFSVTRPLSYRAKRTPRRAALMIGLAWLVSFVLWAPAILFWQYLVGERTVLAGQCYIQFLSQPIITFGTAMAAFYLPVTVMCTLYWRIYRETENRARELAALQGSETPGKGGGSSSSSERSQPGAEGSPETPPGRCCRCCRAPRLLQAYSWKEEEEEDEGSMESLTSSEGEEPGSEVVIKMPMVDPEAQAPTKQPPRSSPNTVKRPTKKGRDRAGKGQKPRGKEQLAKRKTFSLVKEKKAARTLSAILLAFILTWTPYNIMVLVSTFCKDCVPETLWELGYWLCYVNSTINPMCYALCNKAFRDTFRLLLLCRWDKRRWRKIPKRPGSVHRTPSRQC

Rattus norvegicus [7] = experiment: Compound is measured for inhibition of catalepsy in rats by subcutaneous administration of compound; type: functional; settings: sc
Rattus norvegicus [8] = experiment: Compound is measured for inhibition of catalepsy in rats by peroral administration of compound; type: functional; settings: po
D(4) dopamine receptor [9] = target: T1, D(4) dopamine receptor; experiment: Compound was tested in vitro for its binding affinity towards human Dopamine receptor D4.2
Mus musculus [10] = experiment: Inhibition of apomorphine induced climbing affects in mice by administering the compound perorally in mice; type: functional
[11] = target: T3, Adrenergic receptor alpha-1 (Rattus norvegicus, UniProt P15823+P23944+P43140); experiment: In vitro binding affinity towards Alpha-1 adrenergic receptor by the displacement of [3H]prazosin radioligand in rat cortical homogenates
T3 sequence (P15823 whole entry): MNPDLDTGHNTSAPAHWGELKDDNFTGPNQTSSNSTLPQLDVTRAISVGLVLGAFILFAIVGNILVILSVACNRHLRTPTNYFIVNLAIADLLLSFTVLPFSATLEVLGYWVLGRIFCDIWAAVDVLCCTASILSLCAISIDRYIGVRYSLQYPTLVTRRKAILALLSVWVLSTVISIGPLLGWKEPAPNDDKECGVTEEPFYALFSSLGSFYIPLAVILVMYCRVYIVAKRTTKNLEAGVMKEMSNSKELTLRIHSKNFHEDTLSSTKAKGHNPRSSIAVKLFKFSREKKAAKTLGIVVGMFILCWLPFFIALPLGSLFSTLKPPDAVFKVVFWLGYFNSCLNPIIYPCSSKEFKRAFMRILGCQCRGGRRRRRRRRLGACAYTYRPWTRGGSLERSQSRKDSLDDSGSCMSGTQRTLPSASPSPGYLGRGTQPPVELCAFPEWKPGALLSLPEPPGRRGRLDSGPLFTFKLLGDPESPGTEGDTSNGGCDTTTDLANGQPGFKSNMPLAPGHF
T3 sequence (P23944 whole entry): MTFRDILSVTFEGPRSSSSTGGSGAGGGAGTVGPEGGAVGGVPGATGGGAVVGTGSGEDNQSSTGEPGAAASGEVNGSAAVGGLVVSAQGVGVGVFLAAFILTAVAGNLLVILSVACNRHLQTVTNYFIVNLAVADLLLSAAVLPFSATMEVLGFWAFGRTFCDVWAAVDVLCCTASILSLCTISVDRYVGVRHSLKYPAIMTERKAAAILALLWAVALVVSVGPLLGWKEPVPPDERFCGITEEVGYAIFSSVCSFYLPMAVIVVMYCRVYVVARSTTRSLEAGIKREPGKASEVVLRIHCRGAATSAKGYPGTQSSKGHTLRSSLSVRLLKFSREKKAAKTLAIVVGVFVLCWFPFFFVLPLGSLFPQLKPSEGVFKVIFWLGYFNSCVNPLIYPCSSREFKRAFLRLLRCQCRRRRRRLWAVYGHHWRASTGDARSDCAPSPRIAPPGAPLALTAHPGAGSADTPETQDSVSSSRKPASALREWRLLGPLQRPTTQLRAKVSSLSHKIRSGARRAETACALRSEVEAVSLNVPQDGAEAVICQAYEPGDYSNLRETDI
T3 sequence (P43140 whole entry): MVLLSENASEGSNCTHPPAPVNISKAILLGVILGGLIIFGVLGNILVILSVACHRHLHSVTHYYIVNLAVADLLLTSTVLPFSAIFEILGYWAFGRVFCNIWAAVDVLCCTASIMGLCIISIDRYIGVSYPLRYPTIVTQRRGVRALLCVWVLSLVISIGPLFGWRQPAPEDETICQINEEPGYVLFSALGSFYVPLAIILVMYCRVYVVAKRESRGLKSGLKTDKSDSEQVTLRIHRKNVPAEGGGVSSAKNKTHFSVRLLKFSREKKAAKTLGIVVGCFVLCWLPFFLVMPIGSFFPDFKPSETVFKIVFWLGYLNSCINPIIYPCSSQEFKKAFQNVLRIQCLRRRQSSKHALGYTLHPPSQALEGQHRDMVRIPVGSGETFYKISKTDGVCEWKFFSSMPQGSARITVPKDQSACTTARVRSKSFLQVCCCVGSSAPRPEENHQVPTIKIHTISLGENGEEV

[12] = target: T4, 5-hydroxytryptamine receptor 2C (Rattus norvegicus, UniProt P08909)
T4 sequence (P08909 whole entry): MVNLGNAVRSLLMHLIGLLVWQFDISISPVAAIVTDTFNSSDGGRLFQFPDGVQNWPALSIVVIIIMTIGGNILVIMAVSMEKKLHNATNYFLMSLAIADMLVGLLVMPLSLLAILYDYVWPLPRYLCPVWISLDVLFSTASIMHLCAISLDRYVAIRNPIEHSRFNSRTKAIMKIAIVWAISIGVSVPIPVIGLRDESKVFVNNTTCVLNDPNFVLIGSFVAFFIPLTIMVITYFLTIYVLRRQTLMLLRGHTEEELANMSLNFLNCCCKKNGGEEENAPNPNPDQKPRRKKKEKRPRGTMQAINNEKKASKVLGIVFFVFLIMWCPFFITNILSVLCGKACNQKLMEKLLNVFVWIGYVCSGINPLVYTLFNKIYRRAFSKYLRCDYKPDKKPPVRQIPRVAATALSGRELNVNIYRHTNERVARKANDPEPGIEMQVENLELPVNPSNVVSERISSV
Description: Binding affinity towards 5-HT2C receptor from rat using [3H]mesulergine as radioligand

[13] = target: 5-hydroxytryptamine receptor 2A (Rattus norvegicus, UniProt P14842); experiment: biochemical
Description: Binding affinity towards 5-hydroxytryptamine 2A receptor from rat frontal cortex using [3H]ketanserin as radioligand

in vivo = settings: sc
Description: Therapeutic ratio by Subcutaneous dose of administration (quotient ED50 catalepsy/ED50 climbing)

D(1A) dopamine receptor = D(1A) dopamine receptor (Rattus norvegicus, UniProt P18901); experiment: biochemical
Description: Binding affinity towards D1 CNS receptor of rat corpus striatum using [3H]SCH-23390 as radioligand

[14] = target: T3, Adrenergic receptor alpha-1; experiment: Binding affinity towards alpha-1 adrenergic receptor from rat brain membranes using [3H]prazosin as radioligand
Rattus norvegicus [15] = experiment: Compound is measured for inhibition of catalepsy in rat by peroral administration of compound; type: functional; settings: po
[16] = Delta ED50 value by peroral administration (ED50 catalepsy-ED50 Climbing); type: functional
[17] = Therapeutic ratio by Peroral dose of administration (quotient ED50 catalepsy/ED50 climbing); type: ADME, organism-based; settings: in vivo, po; read-out: Therapeutic ratio
Rattus norvegicus [18] = experiment: Catalepsy percent score in rat by peroral administration of 100 mg/Kg of compound
Histamine H1 receptor = Histamine H1 receptor (Rattus norvegicus, UniProt P31390); experiment: Binding affinity towards histamine H1 receptor from rat brain membranes using [3H]mepyramine as radioligand
Rattus norvegicus [19] = species on record: Rattus norvegicus; experiment: Ex vivo accumulation of L-DOPA was measured in striatum of rats
[20] = Mus musculus, po, read-out: ED50

Sequence of 5-hydroxytryptamine receptor 2A (P14842 whole entry): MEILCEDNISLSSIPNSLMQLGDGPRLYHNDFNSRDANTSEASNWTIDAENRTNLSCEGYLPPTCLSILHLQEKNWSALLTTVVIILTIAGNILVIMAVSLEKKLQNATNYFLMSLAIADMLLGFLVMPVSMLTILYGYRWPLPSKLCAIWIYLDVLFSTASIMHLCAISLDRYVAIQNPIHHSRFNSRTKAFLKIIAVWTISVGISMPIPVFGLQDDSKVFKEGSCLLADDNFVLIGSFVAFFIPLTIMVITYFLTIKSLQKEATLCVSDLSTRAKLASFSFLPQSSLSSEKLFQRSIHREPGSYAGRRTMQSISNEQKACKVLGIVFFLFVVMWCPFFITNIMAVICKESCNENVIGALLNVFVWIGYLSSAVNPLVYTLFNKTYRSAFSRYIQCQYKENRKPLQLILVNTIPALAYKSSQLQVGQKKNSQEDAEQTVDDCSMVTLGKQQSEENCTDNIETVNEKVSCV
Sequence of D(3) dopamine receptor (P35462 whole entry): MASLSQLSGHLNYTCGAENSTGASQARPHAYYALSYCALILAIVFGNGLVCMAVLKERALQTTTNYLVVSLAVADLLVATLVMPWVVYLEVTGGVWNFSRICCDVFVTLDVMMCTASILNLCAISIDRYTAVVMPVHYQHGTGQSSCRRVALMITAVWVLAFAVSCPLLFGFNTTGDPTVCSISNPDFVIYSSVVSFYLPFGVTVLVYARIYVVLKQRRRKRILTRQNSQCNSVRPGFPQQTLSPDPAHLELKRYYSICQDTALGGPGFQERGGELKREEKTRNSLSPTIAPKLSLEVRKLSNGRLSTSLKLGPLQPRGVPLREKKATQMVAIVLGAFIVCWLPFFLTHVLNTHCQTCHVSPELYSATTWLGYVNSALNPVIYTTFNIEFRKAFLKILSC
Sequence of D(1A) dopamine receptor (P18901 whole entry): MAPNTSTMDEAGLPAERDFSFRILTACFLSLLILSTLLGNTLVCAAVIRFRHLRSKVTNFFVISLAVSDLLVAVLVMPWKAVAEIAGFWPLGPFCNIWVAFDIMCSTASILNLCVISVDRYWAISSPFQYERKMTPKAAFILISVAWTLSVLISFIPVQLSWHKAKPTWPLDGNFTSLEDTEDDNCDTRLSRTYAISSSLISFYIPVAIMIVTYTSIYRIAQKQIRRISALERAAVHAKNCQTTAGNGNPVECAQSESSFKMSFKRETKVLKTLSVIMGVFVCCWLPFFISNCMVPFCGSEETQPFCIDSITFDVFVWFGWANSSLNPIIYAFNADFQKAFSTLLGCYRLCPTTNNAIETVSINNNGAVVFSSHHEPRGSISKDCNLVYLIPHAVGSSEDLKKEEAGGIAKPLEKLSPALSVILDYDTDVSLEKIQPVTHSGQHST
Sequence of Histamine H1 receptor (P31390 whole entry): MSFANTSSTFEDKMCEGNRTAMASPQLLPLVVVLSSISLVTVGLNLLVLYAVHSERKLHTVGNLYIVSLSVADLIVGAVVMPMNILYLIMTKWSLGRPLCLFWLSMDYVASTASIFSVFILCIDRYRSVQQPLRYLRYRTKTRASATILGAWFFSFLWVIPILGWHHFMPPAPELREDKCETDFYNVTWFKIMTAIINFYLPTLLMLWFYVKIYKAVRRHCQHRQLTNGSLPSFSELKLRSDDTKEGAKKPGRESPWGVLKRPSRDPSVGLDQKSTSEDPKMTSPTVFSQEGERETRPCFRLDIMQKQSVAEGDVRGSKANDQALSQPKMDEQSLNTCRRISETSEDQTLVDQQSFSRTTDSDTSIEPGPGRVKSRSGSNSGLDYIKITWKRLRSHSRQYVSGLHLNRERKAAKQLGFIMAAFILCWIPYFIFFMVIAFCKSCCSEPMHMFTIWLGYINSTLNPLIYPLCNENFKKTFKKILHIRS

SMILES	logP [1]	IC50 (D(4) dopamine receptor [3]) [nM]	IC50 (D(3) dopamine receptor) [nM]	IC50 [6] [nM]	IC50 [13] [nM]	ED50 (Rattus norvegicus [2]) [mg/kg]	ED50 (Mus musculus [4]) [mg/kg]	Delta ED50 [5] [mg/kg]	ED50 (Mus musculus [10]; [20]) [mg/kg]	ED50 (Rattus norvegicus [15]) [mg/kg]	also measured
COc1ccc2c(c1)C(N1CCN(C)CC1)=Nc1ccccc1N2	2.71										
CN1CCN(C2=Nc3ccccc3Nc3ccc(Cl)cc32)CC1 [ISOCLOZAPINE]	3.48	110	120			2	1.7	0.3			
CN1CCN(C2=Nc3ccccc3Oc3ccc(Cl)cc32)CC1 [LOXAPINE]			22	5500					0.04		ED50 (Rattus norvegicus [7]): 0.35 mg/kg; ED50 (Rattus norvegicus [8]): < 1 mg/kg; IC50 (D(4) dopamine receptor [9]): 14 nM; ED50 (Mus musculus [10]): 0.04 mg/kg; IC50 [11]: 18 nM
CN1CCN(C2=Nc3ccccc3Nc3ccc(O)cc32)CC1	2.21										
CN1CCN(C2=Nc3ccccc3Oc3ccc(OS(=O)(=O)C(F)(F)F)cc32)CC1	3.76	150	29	490	48		2.2		1.3	28	IC50 [12]: 100 nM; Catalepsy (Rattus norvegicus [18]): 32%; Delta ED50 [16]: 26.7 mg/kg; selectivity ratio [17]: 21.5; IC50 (Histamine H1 receptor): 120 nM; IC50 (D(1A) dopamine receptor): 66 nM; IC50 [14]: 27 nM; ED50 (Rattus norvegicus [19]): 0.7 mg/kg
O=C(CCCN1CCC(O)(c2ccc(Cl)cc2)CC1)c1ccc(F)cc1 [HALOPERIDOL]	3.98					0.25	0.1			1.5	ED50 (Rattus norvegicus [19]): 0.1 mg/kg

Now from value to compound, other results behind:

logP [1]	IC50 (D(4) dopamine receptor [3]) [nM]	IC50 (D(3) dopamine receptor) [nM]	IC50 [6] [nM]	IC50 [13] [nM]	SMILES	ED50 (Rattus norvegicus [2]) [mg/kg]	ED50 (Mus musculus [4]) [mg/kg]	Delta ED50 [5] [mg/kg]	ED50 (Mus musculus [10]; [20]) [mg/kg]	ED50 (Rattus norvegicus [15]) [mg/kg]	also measured
4.3	490	52	54	23	CN1CCN(C2=Nc3cc(Cl)ccc3Nc3ccc(OS(=O)(=O)C(F)(F)F)cc32)CC1	> 50	8.2	>41.8			IC50 [12]: 13 nM; selectivity ratio (in vivo): > 6.1; IC50 (D(1A) dopamine receptor): 200 nM; IC50 [14]: 7.1 nM
3.58					CN1CCN(C2=Nc3cc(OS(=O)(=O)C(F)(F)F)ccc3Nc3ccccc32)CC1						
3.58	120	53	> 1000	43	CN1CCN(C2=Nc3ccccc3Nc3ccc(OS(=O)(=O)C(F)(F)F)cc32)CC1	> 44	2.1	>41.9	11	> 100	selectivity ratio (in vivo): > 20; Delta ED50 [16]: >89 mg/kg; selectivity ratio [17]: > 9
